Assay results published in ChEMBL document CHEMBL1135422 (J Med Chem, 2002).

How the values were obtained:
[1] = biological target: Cholinesterase (Homo sapiens, UniProt P06276)
[2] = biological target: T1, Acetylcholinesterase (Rattus norvegicus, UniProt P37136); test: biochemical
T1 sequence (P37136 whole entry): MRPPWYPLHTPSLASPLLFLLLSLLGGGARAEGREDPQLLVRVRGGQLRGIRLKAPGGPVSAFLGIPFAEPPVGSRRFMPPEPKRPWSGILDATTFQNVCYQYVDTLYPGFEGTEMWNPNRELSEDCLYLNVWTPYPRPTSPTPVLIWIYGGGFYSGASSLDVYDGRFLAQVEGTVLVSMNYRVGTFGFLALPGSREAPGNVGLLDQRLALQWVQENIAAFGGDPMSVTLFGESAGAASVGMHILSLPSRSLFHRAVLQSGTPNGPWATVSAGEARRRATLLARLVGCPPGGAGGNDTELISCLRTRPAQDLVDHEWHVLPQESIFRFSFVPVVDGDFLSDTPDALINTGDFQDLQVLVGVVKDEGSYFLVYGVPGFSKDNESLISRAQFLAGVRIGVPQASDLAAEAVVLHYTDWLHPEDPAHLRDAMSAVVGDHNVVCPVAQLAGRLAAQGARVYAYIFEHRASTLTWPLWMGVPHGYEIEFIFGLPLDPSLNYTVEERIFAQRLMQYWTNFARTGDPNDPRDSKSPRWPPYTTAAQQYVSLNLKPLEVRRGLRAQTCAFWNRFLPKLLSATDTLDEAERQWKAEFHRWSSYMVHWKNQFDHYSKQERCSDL

Sequence of Cholinesterase (P06276 whole entry): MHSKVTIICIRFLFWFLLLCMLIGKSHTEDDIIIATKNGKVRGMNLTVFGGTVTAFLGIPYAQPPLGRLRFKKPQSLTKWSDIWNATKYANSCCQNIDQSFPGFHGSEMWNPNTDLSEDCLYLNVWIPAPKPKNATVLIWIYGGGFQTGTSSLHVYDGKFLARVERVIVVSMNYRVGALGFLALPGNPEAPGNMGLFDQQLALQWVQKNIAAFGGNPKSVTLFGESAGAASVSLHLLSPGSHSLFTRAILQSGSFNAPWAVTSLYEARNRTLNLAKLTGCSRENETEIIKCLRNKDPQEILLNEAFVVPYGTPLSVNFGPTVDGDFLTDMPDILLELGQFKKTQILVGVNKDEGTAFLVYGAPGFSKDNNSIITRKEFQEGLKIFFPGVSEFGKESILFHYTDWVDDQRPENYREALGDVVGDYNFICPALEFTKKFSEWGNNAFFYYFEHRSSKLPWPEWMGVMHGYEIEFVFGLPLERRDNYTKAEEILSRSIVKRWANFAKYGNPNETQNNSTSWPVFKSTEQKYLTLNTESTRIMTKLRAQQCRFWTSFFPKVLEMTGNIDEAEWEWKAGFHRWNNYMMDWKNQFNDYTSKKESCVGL

Row | Structure (SMILES) | IC50 [1] [nM] | IC50 [2] [nM]
1 | c1ccc2c(NCCCCCCCCNc3c4c(nc5ccccc35)CCCCC4)c3c(nc2c1)CCCCC3 | 3.8 | 
2 | Clc1ccc2c(NCCCCCCCNc3c4c(nc5cc(Cl)ccc35)CCCC4)c3c(nc2c1)CCCC3 | 26 | 0.07
3 | c1ccc2c(NCCCCCCCNc3c4c(nc5ccccc35)CCCCC4)c3c(nc2c1)CCCCC3 | 2.6 | 
4 | c1ccc2c(NCCCCCCNc3c4c(nc5ccccc35)CCCCC4)c3c(nc2c1)CCCCC3 | 3.3 | 2.5
5 | Fc1ccc2c(NCCCCCCCCNc3c4c(nc5cc(F)ccc35)CCCC4)c3c(nc2c1)CCCC3 | 164 | 0.7
6 | c1ccc2c(NCCCCCCCNc3c4c(nc5ccccc35)CCCC4)c3c(nc2c1)CCCC3 | 54 | 
7 | c1ccc2c(NCCCCCCNc3c4c(nc5ccccc35)CCC4)c3c(nc2c1)CCC3 | 273 | 
8 | Clc1ccc2c(NCCCCCCNc3c4c(nc5cc(Cl)ccc35)CCCC4)c3c(nc2c1)CCCC3 | 312 | 0.6
9 | c1ccc2c(NCCCCCCNc3c4c(nc5ccccc35)CCCC4)c3c(nc2c1)CCCC3 | 83 | 1.4
10 | c1ccc2c(NCCCCCCCCNc3c4c(nc5ccccc35)CCC4)c3c(nc2c1)CCC3 | 165 | 
11 | Fc1ccc2c(NCCCCCCCNc3c4c(nc5cc(F)ccc35)CCCC4)c3c(nc2c1)CCCC3 | 257 | 0.6
12 | Fc1ccc2c(NCCCCCCNc3c4c(nc5cc(F)ccc35)CCCC4)c3c(nc2c1)CCCC3 | 45 | 0.9
13 | c1ccc2c(NCCCCCCCCNc3c4c(nc5ccccc35)CCCC4)c3c(nc2c1)CCCC3 | 53 | 1.6
14 | c1cnc2nc3c(c(NCCCCCCNc4c5c(nc6ncccc46)CCCC5)c2c1)CCCC3 | 93 | 
15 | c1cnc2nc3c(c(NCCCCCCCCNc4c5c(nc6ncccc46)CCCC5)c2c1)CCCC3 | 23 | 
16 | c1ccc2c(NCCCCCCCNc3c4c(nc5ccccc35)CCC4)c3c(nc2c1)CCC3 | 328 | 75
17 | c1cnc2nc3c(c(NCCCCCCCNc4c5c(nc6ncccc46)CCCC5)c2c1)CCCC3 | 59 | 1.3
